Data from ChEMBL document CHEMBL5236573, “Development of benzodioxine-heteroarylpiperazines as highly potent and selective α2c antagonists” (Bioorg Med Chem Lett, 2022).
Converted amounts (≈) assume the structure as drawn.

Key:
[1] = target: T1, Alpha-2A adrenergic receptor (Homo sapiens) (UniProt P08913); experiment: Antagonist activity at alpha2a-adrenoceptor (unknown origin) assessed as reduction in adrenaline-induced response by measuring equilibrium binding constant; settings: filed as antagonist
T1 sequence (whole entry): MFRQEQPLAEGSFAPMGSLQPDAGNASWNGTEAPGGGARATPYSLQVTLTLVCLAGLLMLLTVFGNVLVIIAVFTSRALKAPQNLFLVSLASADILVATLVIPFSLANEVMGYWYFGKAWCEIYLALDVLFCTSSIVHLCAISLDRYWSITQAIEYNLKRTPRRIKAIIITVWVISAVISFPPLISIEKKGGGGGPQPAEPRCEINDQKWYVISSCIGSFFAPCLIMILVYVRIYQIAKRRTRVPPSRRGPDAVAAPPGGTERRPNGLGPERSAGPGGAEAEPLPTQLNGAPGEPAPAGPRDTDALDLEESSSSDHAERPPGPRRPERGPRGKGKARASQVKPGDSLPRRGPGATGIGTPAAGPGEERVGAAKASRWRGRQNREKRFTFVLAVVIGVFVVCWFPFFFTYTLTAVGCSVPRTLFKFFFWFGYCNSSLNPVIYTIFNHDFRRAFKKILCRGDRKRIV

[2] = Solubility of the compound in pH 7.4 buffer; type: physicochemical
[3] = Permeability across apical to basolateral side in human Caco-2 cells; type: ADME, cell-based; settings: read-out: permeability
[4] = Metabolic stability in human hepatocytes assessed as clearance per 10^6 cells at 1 uM; type: ADME, cell-based, Hepatocyte; settings: read-out: CLH
[5] = Metabolic stability in rat hepatocytes assessed as clearance per 10^6 cells at 1 uM; type: ADME, cell-based, Hepatocyte; settings: read-out: CLH
[6] = target: T2, Alpha-2C adrenergic receptor (Homo sapiens) (UniProt P18825); experiment: Antagonist activity at alpha2c-adrenoceptor (unknown origin) assessed as reduction in adrenaline-induced response by measuring equilibrium binding constant; settings: filed as antagonist
T2 sequence (whole entry): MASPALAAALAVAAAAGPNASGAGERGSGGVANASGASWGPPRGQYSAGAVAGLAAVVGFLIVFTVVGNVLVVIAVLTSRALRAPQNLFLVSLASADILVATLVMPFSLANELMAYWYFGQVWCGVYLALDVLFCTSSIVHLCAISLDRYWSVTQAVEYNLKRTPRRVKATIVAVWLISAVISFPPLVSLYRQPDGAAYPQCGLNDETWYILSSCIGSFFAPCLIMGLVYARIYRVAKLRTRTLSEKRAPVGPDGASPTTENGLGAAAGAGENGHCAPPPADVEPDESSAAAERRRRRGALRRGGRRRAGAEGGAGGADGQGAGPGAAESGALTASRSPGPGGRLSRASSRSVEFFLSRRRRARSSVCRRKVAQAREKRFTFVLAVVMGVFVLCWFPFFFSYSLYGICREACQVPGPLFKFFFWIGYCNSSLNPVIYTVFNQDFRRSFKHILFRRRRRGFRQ

[7] = Efflux ratio of permeability across basolateral to apical side over apical to basolateral side in human Caco-2 cells; type: ADME, cell-based
Homo sapiens = species on record: Homo sapiens; experiment: Selectivity index, ratio of Kb for antagonist activity at alpha2a-adrenoceptor (unknown origin) to Kb for antagonist activity at alpha2c-adrenoceptor (unknown origin)
[8] = Permeability across basolateral to apical side in human Caco-2 cells; type: ADME, cell-based; settings: read-out: permeability
[9] = Lipophilicity, logD of the compound; type: physicochemical; settings: octanol/water
[10] = AUC (0 to 6 hrs) in rat plasma at 1 mg/kg, po; type: ADME, organism-based; set-up: dose 1 mg/kg, route po
[11] = Unbound fraction in rat brain at 1 mg/kg, po; type: ADME, organism-based
[12] = AUC (0 to 6 hrs) in rat brain at 1 mg/kg, po; type: ADME, organism-based; set-up: dose 1 mg/kg, route po
[13] = Unbound fraction in rat plasma at 1 mg/kg, po; type: ADME, organism-based
[14] = Unbound Cmax in rat plasma at 1 mg/kg, po by rapid equilibrium dialysis method; type: ADME, organism-based; settings: in vivo
[15] = Unbound Cmax in rat brain at 1 mg/kg, po by rapid equilibrium dialysis method; type: ADME, organism-based; settings: in vivo
[16] = Cmax in rat plasma at 1 mg/kg, po; type: ADME, organism-based; set-up: dose 1 mg/kg, route po
[17] = Tmax in rat plasma at 1 mg/kg, po; type: ADME, organism-based
[18] = Cmax in rat brain at 1 mg/kg, po; type: ADME, organism-based; set-up: dose 1 mg/kg, route po
[19] = Unbound brain-to-plasma concentration ratio in rat at 1 mg/kg, po; type: ADME, organism-based; settings: brain and plasma, read-out: K(p,uu,brain)
[20] = Tmax in rat brain at 1 mg/kg, po; type: ADME, organism-based

| Structure (SMILES) | Kb [1] | solubility [2] | hepatocyte CLint at 1 µM [4] | hepatocyte CLint at 1 µM [5] | Kb [6] | Ratio (Homo sapiens) | logD [9] | also measured |
| --- | --- | --- | --- | --- | --- | --- | --- | --- |
| Cc1c(N2CCNC2=O)c(N2CCN(C[C@H]3COc4ccccc4O3)CC2)nn1C | 449 nM | 114 µM (≈ 47 µg/mL) | 1.8 µL/min/1e6 cells | 1.8 µL/min/1e6 cells | 0.06 nM | 7480 | – | Papp A→B [3]: 2.9 ×10⁻⁶ cm/s; efflux ratio [7]: 7.5; Papp B→A [8]: 21.4 ×10⁻⁶ cm/s |
| c1ccc2c(c1)OC[C@H](CN1CCN(c3nsnc3Nc3ccncn3)CC1)O2 | 459 nM | – | 14.2 µL/min/1e6 cells | 29.3 µL/min/1e6 cells | 0.01 nM | 45900 | – | – |
| COc1scnc1N1CCN(C[C@H]2COc3ccccc3O2)CC1 | 88.3 nM | 445 µM (≈ 155 µg/mL) | 14.3 µL/min/1e6 cells | 54.4 µL/min/1e6 cells | 0.01 nM | 8830 | 2.3 | – |
| Oc1cccc([C@H]2CCCN(C[C@H]3COc4ccccc4O3)C2)c1 | – | – | – | – | – | – | – | AUC(0-t) [10]: 9 ng·h/mL; fraction unbound [11]: < 0.01; AUC(0-t) [12]: 14 ng·h/mL; fraction unbound [13]: < 0.01; fCmax [14]: < 0.06 nM; fCmax [15]: < 0.09 nM |
| O=C1CCCN1c1ncsc1N1CCN(C[C@H]2COc3ccccc3O2)CC1 | 317 nM | 1130 µM (≈ 451 µg/mL) | 3.6 µL/min/1e6 cells | 5 µL/min/1e6 cells | 0.04 nM | 7940 | 1.9 | Papp A→B [3]: 42.4 ×10⁻⁶ cm/s; efflux ratio [7]: 0.6; Papp B→A [8]: 24.3 ×10⁻⁶ cm/s |
| CN(C)C(=O)c1nsnc1N1CCN(C[C@H]2COc3ccccc3O2)CC1 | 449 nM | 719 µM (≈ 280 µg/mL) | 1.75 µL/min/1e6 cells | 30 µL/min/1e6 cells | 0.09 nM | 4990 | 2.5 | – |
| CC1CCN(c2nsnc2N2CCN(C[C@H]3COc4ccccc4O3)CC2)C1=O (stereo not given in full) | 449 nM | 395 µM (≈ 164 µg/mL) | 6.3 µL/min/1e6 cells | 73.7 µL/min/1e6 cells | 0.04 nM | 11200 | 2.8 | – |
| COCc1cccnc1N1CCN(C[C@H]2COc3ccccc3O2)CC1 [ORM-13070] | 130 nM | 176 µM (≈ 62.6 µg/mL) | – | – | 0.03 nM | 4330 | 3.3 | – |
| O=C1CCCN1c1cccnc1N1CCN(C[C@H]2COc3ccccc3O2)CC1 | 44.9 nM | – | – | – | 0.01 nM | 4490 | – | – |
| CC1(C)CCN(c2nsnc2N2CCN(C[C@H]3COc4ccccc4O3)CC2)C1=O | 449 nM | 133 µM (≈ 57.1 µg/mL) | 18.1 µL/min/1e6 cells | 128 µL/min/1e6 cells | 0.01 nM | 44900 | 3.1 | – |
| CN1CCN(c2nsnc2N2CCN(C[C@H]3COc4ccccc4O3)CC2)C1=O | 449 nM | – | – | – | 108 nM | 4.15 | – | – |
| O=C1NCCN1c1nsnc1N1CCN(C[C@H]2COc3ccccc3O2)CC1 | 449 nM | – | 1.8 µL/min/1e6 cells | 1.8 µL/min/1e6 cells | 0.076 nM | 5930 | – | – |
| O=C1CCCN1c1nsnc1N1CCN(C[C@H]2COc3ccccc3O2)CC1 | 282 nM | 822 µM (≈ 330 µg/mL) | 8.2 µL/min/1e6 cells | 16.2 µL/min/1e6 cells | 0.05 nM | 5380 | 2.2 | Cmax [16]: 113 ng/mL; AUC(0-t) [10]: 189 ng·h/mL; fraction unbound [11]: 0.104; Papp A→B [3]: 73.6 ×10⁻⁶ cm/s; Tmax [17]: 15 min; AUC(0-t) [12]: 140 ng·h/mL; Cmax [18]: 101 ng/g; Kp uu [19]: 0.45; efflux ratio [7]: 0.6; Tmax [20]: 15 min; fraction unbound [13]: 0.185; Papp B→A [8]: 44.3 ×10⁻⁶ cm/s; fCmax [14]: 52 nM; fCmax [15]: 26 nM |
